Columns and labels:
[1] = system: NCI-H460; experiment: Inhibition of human NCI-H460 (lung) carcinoma cell proliferation; assay type: functional, cell-based
[2] = biological target: Cyclin-dependent kinase 4/cyclin D1 (Homo sapiens, UniProt P11802); experiment: Inhibitory activity against Cyclin D1-cyclin-dependent kinase 4 by measuring the phosphorylation of RbING; assay type: protein-complex assay
[3] = system: HCT-116; experiment: Inhibition of human HCT(colon) carcinoma cell proliferation; assay type: functional, cell-based
[4] = biological target: cAMP-dependent protein kinase (PKA) (Homo sapiens, UniProt P22694+P17612+P22612); experiment: Inhibition of Protein kinase A; assay type: protein assay
[5] = biological target: Cyclin-dependent kinase 2/cyclin E (Homo sapiens, UniProt P24941); experiment: Inhibition of Cyclin E-cyclin-dependent kinase 2; assay type: protein-complex assay
[6] = biological target: Glycogen synthase kinase-3 beta (Homo sapiens, UniProt P49841); experiment: Inhibition of Glycogen synthase kinase-3 beta
[7] = biological target: Cyclin-dependent kinase 1/cyclin B (Homo sapiens, UniProt P06493); experiment: Inhibition of Cyclin B-cyclin-dependent kinase 1; assay type: protein-complex assay
[8] = biological target: Protein kinase C alpha type (Homo sapiens, UniProt P17252); experiment: Inhibition of Protein kinase C alpha
[9] = biological target: Protein kinase C beta type (Homo sapiens, UniProt P05771); experiment: Inhibition of Protein kinase C beta 2
[10] = biological target: Protein kinase C gamma type (Homo sapiens, UniProt P05129); experiment: Inhibition of Protein kinase C gamma

Chain of Cyclin-dependent kinase 4/cyclin D1 (P11802 whole entry): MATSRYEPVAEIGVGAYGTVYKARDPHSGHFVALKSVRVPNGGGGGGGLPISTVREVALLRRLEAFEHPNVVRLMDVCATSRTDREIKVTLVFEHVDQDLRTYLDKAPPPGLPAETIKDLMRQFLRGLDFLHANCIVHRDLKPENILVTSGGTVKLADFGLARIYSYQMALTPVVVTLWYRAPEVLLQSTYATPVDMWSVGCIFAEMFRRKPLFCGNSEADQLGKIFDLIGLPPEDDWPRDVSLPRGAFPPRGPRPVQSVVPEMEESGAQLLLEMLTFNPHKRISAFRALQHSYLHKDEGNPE
Chain of Cyclin-dependent kinase 4/cyclin D1 (P24385 whole entry, further chain): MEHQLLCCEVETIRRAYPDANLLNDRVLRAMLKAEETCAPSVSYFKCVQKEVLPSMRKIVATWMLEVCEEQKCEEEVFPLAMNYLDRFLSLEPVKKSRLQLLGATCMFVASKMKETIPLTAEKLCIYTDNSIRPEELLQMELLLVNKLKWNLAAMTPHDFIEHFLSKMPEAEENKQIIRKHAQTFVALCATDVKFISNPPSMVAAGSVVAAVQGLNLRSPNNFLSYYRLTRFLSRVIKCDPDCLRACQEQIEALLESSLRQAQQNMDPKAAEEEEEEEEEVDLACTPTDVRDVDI
Chain of Protein kinase C beta type (P05771 whole entry): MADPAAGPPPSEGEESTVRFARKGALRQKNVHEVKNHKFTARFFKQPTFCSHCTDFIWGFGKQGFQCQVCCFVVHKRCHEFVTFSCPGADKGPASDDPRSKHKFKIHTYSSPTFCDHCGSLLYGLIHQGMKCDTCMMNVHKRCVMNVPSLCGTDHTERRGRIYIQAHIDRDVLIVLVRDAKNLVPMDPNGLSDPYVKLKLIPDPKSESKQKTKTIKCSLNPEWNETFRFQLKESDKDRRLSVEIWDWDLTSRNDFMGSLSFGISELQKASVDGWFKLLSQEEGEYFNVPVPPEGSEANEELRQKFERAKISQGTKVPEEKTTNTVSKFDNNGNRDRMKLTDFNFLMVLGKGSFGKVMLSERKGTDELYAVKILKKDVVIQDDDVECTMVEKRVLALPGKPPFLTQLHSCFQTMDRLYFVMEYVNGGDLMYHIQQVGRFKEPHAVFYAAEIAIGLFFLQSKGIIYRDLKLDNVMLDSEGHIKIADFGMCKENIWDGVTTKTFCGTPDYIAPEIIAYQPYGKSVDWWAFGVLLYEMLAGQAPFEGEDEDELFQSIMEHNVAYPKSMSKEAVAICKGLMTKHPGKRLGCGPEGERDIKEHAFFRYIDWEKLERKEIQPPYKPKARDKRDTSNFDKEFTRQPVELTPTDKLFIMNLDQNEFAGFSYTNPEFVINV
Chain of Glycogen synthase kinase-3 beta (P49841 whole entry): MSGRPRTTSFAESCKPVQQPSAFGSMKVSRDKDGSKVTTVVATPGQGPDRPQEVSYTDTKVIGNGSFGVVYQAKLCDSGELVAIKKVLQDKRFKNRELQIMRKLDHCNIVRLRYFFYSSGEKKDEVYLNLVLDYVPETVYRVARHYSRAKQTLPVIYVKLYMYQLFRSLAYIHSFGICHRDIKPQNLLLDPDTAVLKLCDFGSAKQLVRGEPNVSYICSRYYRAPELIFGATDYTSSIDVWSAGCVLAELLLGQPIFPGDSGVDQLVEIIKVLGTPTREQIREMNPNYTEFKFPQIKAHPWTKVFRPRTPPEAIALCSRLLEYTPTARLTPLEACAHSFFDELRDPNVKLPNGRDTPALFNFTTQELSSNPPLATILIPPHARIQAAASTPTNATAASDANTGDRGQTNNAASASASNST

Which results are given for `O=C1NC(=O)c2c1c1c3ccc[nH]c-3nc1c1[nH]c3ccccc3c21`?
IC50 [1]: 1.16 µM; IC50 [2]: 250 nM; IC50 [3]: 1.05 µM

Which results are given for `O=C1NCc2c1c1c3ccccc3[nH]c1c1[nH]c3ccccc3c21` [STAUROSPORINONE]?
IC50 [1]: 3.2 µM; IC50 [2]: 830 nM; IC50 [3]: 1.72 µM; IC50 [4]: > 2 µM; IC50 [5]: > 1000 nM

For `O=C1NC(=O)c2c1c1c3ccccc3ccc1c1[nH]c3ccccc3c21`, which IC50 [6] is on record?
Its IC50 is 4.38 µM.

And the IC50 [1]?
Its IC50 is 2.11 µM.

What about the IC50 [2] of the same compound?
The IC50 was 45 nM.

What about the IC50 [7] of the same compound?
Its IC50 is 590 nM.

What about the IC50 [3] of the same compound?
The IC50 was 5.05 µM.

What about the IC50 [8] of the same compound?
Its IC50 is 52.8 µM.

What about the IC50 [9] of the same compound?
Its IC50 is 9 µM.

And the IC50 [4]?
The IC50 was > 20 µM.

What about the IC50 [10] of the same compound?
The IC50 was 56.5 µM.

And the IC50 [5]?
The IC50 was 275 nM.

For `O=C1NC(=O)c2c1c1cc3ccccc3cc1c1[nH]c3ccccc3c21`, which IC50 [2] is on record?
Its IC50 is > 10000 nM.

Which results are given for `O=C1NC(=O)c2c1c1ccccc1c1[nH]c3ccccc3c21`?
IC50 [1]: 3.42 µM; IC50 [2]: 260 nM; IC50 [3]: 5.83 µM

For `O=C1NC(O)c2c1c1c3ccccc3[nH]c1c1[nH]c3ccccc3c21` (centres undefined), which IC50 [2] is on record?
Its IC50 is 3830 nM.

With `O=C1NC(=O)c2c1c1ncccc1c1[nH]c3ccccc3c21` as the compound, how does the IC50 [1] read?
Its IC50 is > 10 µM.

What about the IC50 [2] of the same compound?
Its IC50 is 180 nM.

What about the IC50 [3] of the same compound?
Its IC50 is > 10 µM.

Which IC50 [1] does the source give for `O=C1NC(=O)c2c1c1sccc1c1[nH]c3ccccc3c21` here?
The IC50 was > 10 µM.

And the IC50 [2]?
The IC50 was 150 nM.

What about the IC50 [3] of the same compound?
The IC50 was > 10 µM.

For `O=C1NC(=O)c2c1c1[nH]cnc1c1[nH]c3ccccc3c21` [GRANULATIMIDE], which IC50 [2] is on record?
Its IC50 is 740 nM.

How did the IC50 [1] turn out when `O=C1NC(=O)c2c1c1ccc3ccccc3c1c1[nH]c3ccccc3c21` was run?
The IC50 was > 10 µM.

What about the IC50 [2] of the same compound?
The IC50 was 430 nM.

What about the IC50 [3] of the same compound?
The IC50 was > 10 µM.

What does the source list for `O=C1NC(=O)c2c1c1c3ccccc3[nH]c1c1sc3ccccc3c21`?
IC50 [1]: 2.84 µM; IC50 [2]: 220 nM; IC50 [3]: 3.02 µM

For `O=C1NC(=O)c2c1c1c3ccccc3[nH]c1c1[nH]c3ccccc3c21` [STAUROSPORINE AGLYCON], which IC50 [4] is on record?
The IC50 was > 2 µM.

With `O=C1NC(=O)c2c1c1c3c(ccc1c1[nH]c4ccccc4c21)CCCC3` as the compound, how does the IC50 [2] read?
The IC50 was 410 nM.

`O=C1NC(=O)c2c1c1ccncc1c1[nH]c3ccccc3c21` was tested. Which IC50 [2] did it give?
The IC50 was 1810 nM.

Source: ChEMBL document CHEMBL1136336, “Aryl[a]pyrrolo[3,4-c]carbazoles as selective cyclin D1-CDK4 inhibitors” (Bioorg Med Chem Lett, 2003)
